Test results reported in patent publication US20240025906A1 (NEURON23, INC., priority 2022, published 2024).

Legend:
[1] = tested on: JAK1/TYK2 pSTAT5 (Tyr694/699) in THP-1 cell line; assay: IFNa-stimulated JAK1/TYK2 pSTAT5 (Tyr694/699) inhibition cellular assay, AlphaLISA; format: cell-based; conditions: Homo sapiens; THP-1 cells, IFNa-stimulated, AlphaLISA (Assay B); read-out: Cellular_THP1_IFNa-pSTATS_TYK2
How it was run: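 The readout is AlphaLISA signal at 615 nm for phospho-STAT5 in THP-1 lysates after IFNa stimulation (added at 100 ng/mL, 30 min, 37 °C). Cells had compound for 1 h beforehand across eight 6-fold concentrations up to 10000 nM final. IC50s are 4PL fits with bottom and Hill slope constrained.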

[2] = target: T1, TYK2 JH2 (Homo sapiens, UniProt P29597); assay: TYK2 JH2 binding assay (KINOMEscan KdELECT competitive binding); conditions: TYK2 JH2 domain, DiscoverX KINOMEscan KdELECT (Assay A); read-out: Biochemical TYK2_DiscoverX_JH2_BND_Kd
T1 construct: purchased DiscoverX (KINOMEscan KdELECT service); host or cells: E. coli BL21-derived (T7 phage display) or HEK-293
T1 sequence (P29597 589-875 limits assumed): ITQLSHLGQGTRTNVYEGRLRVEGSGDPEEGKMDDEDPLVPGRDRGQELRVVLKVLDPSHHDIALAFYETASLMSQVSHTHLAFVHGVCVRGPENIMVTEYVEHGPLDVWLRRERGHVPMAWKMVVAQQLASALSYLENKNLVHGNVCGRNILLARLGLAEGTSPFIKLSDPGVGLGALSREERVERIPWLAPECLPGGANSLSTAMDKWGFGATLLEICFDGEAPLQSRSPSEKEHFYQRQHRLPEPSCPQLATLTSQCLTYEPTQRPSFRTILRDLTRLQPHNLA
How it was run: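 The assay measures displacement of DNA- or phage-tagged TYK2 pseudokinase domain from an affinity resin; compound binding lowers the amount captured, read by qPCR. Incubation lasts 1 h at room temperature.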

Row | SMILES | IC50 [1] [nM] | Kd [2] [nM]
1 | [2H]C([2H])([2H])Nc1ncc(-c2nc3cc(OC([2H])([2H])[2H])ccc3o2)c2cc(NC(=O)[C@H]3C[C@H]3C)ncc12 [Example 439, (1S,2R)—N-(5-(5-(methoxy-d3)benzo[d]oxazol-2-yl)-8-((methyl-d3)amino)-2,7-naphthyridin-3-yl)-2-methylcyclopropane-1-carboxamide] | ≤ 500 | ≤ 100
2 | CNc1ncc(-c2nc3c(NC(C)=O)cccc3o2)c2cc(NC(=O)C3CC3)ncc12 [Example 444, N-(5-(4-acetamidobenzo[d]oxazol-2-yl)-8-(methylamino)-2,7-naphthyridin-3-yl)cyclopropanecarboxamide] | ≤ 500 | ≤ 100
3 | CNc1ncc(-c2nc3cc(-n4c(=O)ccn4C)ccc3o2)c2cc(NC(=O)C3CC3)ncc12 [Example 446, N-(5-(5-(2-methyl-5-oxo-2,5-dihydro-1H-pyrazol-1-yl)benzo[d]oxazol-2-yl)-8-(methylamino)-2,7-naphthyridin-3-yl)cyclopropanecarboxamide] | > 500 | ≤ 100
4 | CNc1ncc(-c2nc3cc(N4CC5COCC(C4)N5C)ccc3o2)c2cc(NC(=O)C3CC3)ncc12 [Example 447, N-(5-(5-(9-methyl-3-oxa-7,9-diazabicyclo[3.3.1]nonan-7-yl)benzo[d]oxazol-2-yl)-8-(methylamino)-2,7-naphthyridin-3-yl)cyclopropanecarboxamide] | ≤ 500 | ≤ 100
5 | CNc1ncc(-c2nc3cc(C4CCOCC4)ccc3o2)c2cc(NC(=O)C3CC3)ncc12 [Example 448, N-(8-(methylamino)-5-(5-(tetrahydro-2H-pyran-4-yl)benzo[d]oxazol-2-yl)-2,7-naphthyridin-3-yl)cyclopropanecarboxamide] | ≤ 500 | ≤ 100

Other lines, results leading:

Row | IC50 [1] [nM] | Kd [2] [nM] | SMILES
6 | ≤ 500 | ≤ 100 | [2H]C([2H])([2H])Nc1ncc(-c2nc3cc(OC)ccc3o2)c2cc(NC(=O)[C@@H]3C[C@@H]3F)ncc12 [Example 435, (1S,2S)-2-fluoro-N-(5-(5-methoxybenzo[d]oxazol-2-yl)-8-((methyl-d3)amino)-2,7-naphthyridin-3-yl)cyclopropane-1-carboxamide]
7 | ≤ 500 | ≤ 100 | [2H]C([2H])([2H])Nc1ncc(-c2nc3cc(N4CCO[C@@H](C)C4)ccc3o2)c2cc(NC(=O)[C@H]3C[C@H]3C)ncc12 [Example 440, (1S,2R)-2-methyl-N-(8-((methyl-d3)amino)-5-(5-((S)-2-methylmorpholino)benzo[d]oxazol-2-yl)-2,7-naphthyridin-3-yl)cyclopropane-1-carboxamide]
8 | ≤ 500 | ≤ 100 | [2H]C([2H])([2H])Nc1ncc(-c2nc3cc(N4CCO[C@H](C)C4)ccc3o2)c2cc(NC(=O)[C@H]3C[C@H]3C)ncc12 [Example 441, (1S,2R)-2-methyl-N-(8-((methyl-d3)amino)-5-(5-((R)-2-methylmorpholino)benzo[d]oxazol-2-yl)-2,7-naphthyridin-3-yl)cyclopropane-1-carboxamide]
9 | ≤ 500 | ≤ 100 | [2H]C([2H])([2H])Nc1ncc(-c2nc3cc(N4CCOCC4)ccc3o2)c2cc(NC(=O)C3(F)CC3)ncc12 [Example 442, 1-fluoro-N-(8-((methyl-d3)amino)-5-(5-morpholinobenzo[d]oxazol-2-yl)-2,7-naphthyridin-3-yl)cyclopropane-1-carboxamide]
10 | ≤ 500 | ≤ 100 | [2H]C([2H])([2H])Nc1ncc(-c2nc3cc(N4CCOCC4)ccc3o2)c2cc(NC(=O)[C@H]3C[C@H]3C)ncc12 [Example 443, (1S,2R)-2-methyl-N-(8-((methyl-d3)amino)-5-(5-morpholinobenzo[d]oxazol-2-yl)-2,7-naphthyridin-3-yl)cyclopropane-1-carboxamide]
11 | ≤ 500 | ≤ 100 | CNc1ncc(-c2nc3cc(-c4nc[nH]n4)ccc3o2)c2cc(NC(=O)C3CC3)ncc12 [Example 445, N-(5-(5-(1H-1,2,4-triazol-3-yl)benzo[d]oxazol-2-yl)-8-(methylamino)-2,7-naphthyridin-3-yl)cyclopropanecarboxamide]
